Test results published in ChEMBL document CHEMBL3808287, “AXL Inhibitors in Cancer: A Medicinal Chemistry Perspective” (J Med Chem, 2016).
Each block holds one compound with its values, some of them ahead of it.

Legend:
[1] = molecular target: T1, Tyrosine-protein kinase receptor UFO (Homo sapiens, UniProt P30530); experiment: Inhibition of AXL (unknown origin)
T1 sequence (P30530 whole entry): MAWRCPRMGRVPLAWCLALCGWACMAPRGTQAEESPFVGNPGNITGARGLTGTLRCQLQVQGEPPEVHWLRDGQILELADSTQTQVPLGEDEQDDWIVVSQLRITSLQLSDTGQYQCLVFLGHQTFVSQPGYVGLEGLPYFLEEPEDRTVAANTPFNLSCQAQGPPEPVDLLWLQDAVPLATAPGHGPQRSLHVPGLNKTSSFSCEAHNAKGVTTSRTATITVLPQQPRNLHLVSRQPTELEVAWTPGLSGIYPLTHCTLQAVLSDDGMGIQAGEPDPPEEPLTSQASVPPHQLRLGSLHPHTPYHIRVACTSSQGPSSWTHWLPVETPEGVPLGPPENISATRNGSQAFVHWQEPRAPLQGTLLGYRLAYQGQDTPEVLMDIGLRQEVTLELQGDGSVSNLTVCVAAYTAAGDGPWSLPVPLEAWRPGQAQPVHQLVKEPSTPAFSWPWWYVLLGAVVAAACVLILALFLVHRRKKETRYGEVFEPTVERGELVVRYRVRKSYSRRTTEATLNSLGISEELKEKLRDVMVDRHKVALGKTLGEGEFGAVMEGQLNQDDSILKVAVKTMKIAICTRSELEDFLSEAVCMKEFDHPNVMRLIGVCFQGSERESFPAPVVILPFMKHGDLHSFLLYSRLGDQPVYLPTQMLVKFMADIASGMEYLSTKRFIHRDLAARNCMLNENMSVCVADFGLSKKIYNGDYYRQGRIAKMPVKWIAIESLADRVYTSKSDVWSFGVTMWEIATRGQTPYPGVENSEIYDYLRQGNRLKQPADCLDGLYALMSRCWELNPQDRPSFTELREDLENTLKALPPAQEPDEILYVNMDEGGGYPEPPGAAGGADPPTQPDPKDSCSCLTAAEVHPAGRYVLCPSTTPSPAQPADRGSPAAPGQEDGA

[2] = molecular target: T1, Tyrosine-protein kinase receptor UFO; experiment: Inhibition of AXL (unknown origin) by cell based assay
[3] = molecular target: T1, Tyrosine-protein kinase receptor UFO; experiment: Inhibition of human recombinant AXL expressed in Escherichia coli BL21 infected with T7 phage by qPCR method
[4] = molecular target: Hepatocyte growth factor receptor (Homo sapiens, UniProt P08581); experiment: Inhibition of human recombinant MET expressed in Escherichia coli BL21 infected with T7 phage by qPCR method
Hepatocyte growth factor receptor, sequence (P08581 whole entry): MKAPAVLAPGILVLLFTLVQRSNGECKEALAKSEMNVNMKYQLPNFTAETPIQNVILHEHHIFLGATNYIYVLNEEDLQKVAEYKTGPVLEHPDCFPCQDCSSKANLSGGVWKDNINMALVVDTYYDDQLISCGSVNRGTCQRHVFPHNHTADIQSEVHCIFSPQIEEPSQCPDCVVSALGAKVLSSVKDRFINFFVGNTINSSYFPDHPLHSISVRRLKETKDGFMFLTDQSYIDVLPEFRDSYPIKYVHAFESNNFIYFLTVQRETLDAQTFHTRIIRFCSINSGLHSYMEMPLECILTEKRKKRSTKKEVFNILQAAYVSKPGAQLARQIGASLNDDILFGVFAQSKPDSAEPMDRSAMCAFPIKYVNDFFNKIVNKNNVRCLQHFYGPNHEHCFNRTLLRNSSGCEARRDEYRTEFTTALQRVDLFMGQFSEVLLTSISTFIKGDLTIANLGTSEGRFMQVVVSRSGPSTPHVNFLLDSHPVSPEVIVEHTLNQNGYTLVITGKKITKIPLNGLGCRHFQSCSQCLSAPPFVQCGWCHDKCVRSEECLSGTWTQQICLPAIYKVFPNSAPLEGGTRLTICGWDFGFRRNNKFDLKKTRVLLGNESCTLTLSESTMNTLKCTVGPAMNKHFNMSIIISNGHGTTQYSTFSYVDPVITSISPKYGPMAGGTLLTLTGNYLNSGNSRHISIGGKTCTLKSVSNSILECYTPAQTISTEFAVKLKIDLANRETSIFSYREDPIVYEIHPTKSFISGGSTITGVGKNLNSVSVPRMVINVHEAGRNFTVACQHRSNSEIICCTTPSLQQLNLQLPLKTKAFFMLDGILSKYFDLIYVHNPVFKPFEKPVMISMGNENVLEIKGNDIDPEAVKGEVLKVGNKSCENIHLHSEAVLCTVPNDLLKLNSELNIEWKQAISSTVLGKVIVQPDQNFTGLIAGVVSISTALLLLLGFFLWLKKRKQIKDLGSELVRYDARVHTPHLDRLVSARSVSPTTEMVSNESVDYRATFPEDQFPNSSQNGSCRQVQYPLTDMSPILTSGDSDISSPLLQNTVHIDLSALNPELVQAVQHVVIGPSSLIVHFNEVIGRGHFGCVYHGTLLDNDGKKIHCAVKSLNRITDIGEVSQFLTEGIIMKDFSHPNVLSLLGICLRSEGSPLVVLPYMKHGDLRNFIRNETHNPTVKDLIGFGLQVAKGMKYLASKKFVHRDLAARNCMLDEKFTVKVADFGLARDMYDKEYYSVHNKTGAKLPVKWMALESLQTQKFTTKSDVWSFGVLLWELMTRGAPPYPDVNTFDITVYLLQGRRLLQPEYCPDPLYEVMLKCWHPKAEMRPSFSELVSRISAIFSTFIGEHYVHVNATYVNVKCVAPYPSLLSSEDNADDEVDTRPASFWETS

[5] = molecular target: Vascular endothelial growth factor receptor 2 (Homo sapiens, UniProt P35968); experiment: Inhibition of VEGFR2 (unknown origin)
Vascular endothelial growth factor receptor 2, sequence (P35968 whole entry): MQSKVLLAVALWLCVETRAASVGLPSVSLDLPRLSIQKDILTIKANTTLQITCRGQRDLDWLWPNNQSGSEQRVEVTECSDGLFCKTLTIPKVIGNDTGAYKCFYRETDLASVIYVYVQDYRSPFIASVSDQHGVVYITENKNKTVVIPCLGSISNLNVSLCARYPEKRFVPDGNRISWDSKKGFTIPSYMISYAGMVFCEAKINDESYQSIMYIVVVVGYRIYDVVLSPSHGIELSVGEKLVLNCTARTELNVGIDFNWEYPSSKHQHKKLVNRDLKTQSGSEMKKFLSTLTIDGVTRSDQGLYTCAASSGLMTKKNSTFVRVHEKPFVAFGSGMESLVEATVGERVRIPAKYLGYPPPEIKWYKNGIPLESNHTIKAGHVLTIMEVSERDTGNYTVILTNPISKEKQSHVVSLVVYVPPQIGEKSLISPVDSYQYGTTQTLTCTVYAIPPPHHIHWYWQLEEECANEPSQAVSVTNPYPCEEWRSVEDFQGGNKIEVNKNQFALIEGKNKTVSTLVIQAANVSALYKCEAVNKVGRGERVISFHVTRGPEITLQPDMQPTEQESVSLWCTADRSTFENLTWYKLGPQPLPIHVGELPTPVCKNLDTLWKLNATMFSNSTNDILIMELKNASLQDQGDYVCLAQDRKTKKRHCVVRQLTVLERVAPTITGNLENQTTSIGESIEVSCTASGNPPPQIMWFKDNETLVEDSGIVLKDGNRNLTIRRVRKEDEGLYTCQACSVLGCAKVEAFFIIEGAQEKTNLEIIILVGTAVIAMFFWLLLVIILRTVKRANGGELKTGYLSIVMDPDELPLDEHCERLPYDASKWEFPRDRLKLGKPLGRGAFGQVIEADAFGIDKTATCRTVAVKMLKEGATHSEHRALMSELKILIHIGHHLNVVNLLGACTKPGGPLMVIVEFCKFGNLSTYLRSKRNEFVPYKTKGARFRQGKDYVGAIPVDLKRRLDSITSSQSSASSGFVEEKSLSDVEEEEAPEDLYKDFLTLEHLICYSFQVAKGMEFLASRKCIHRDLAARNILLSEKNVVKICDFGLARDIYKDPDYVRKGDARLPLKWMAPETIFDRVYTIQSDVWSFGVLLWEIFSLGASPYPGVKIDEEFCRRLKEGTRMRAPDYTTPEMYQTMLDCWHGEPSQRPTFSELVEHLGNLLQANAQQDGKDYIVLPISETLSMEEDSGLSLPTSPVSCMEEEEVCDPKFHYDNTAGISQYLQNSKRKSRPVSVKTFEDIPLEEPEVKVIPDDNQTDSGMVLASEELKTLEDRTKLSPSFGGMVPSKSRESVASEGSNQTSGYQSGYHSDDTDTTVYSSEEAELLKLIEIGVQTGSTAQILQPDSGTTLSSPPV

[6] = molecular target: Tyrosine-protein kinase ABL1 (Homo sapiens, UniProt P00519); experiment: Inhibition of human recombinant ABL by fluorescence polarization assay
Tyrosine-protein kinase ABL1, sequence (P00519 whole entry): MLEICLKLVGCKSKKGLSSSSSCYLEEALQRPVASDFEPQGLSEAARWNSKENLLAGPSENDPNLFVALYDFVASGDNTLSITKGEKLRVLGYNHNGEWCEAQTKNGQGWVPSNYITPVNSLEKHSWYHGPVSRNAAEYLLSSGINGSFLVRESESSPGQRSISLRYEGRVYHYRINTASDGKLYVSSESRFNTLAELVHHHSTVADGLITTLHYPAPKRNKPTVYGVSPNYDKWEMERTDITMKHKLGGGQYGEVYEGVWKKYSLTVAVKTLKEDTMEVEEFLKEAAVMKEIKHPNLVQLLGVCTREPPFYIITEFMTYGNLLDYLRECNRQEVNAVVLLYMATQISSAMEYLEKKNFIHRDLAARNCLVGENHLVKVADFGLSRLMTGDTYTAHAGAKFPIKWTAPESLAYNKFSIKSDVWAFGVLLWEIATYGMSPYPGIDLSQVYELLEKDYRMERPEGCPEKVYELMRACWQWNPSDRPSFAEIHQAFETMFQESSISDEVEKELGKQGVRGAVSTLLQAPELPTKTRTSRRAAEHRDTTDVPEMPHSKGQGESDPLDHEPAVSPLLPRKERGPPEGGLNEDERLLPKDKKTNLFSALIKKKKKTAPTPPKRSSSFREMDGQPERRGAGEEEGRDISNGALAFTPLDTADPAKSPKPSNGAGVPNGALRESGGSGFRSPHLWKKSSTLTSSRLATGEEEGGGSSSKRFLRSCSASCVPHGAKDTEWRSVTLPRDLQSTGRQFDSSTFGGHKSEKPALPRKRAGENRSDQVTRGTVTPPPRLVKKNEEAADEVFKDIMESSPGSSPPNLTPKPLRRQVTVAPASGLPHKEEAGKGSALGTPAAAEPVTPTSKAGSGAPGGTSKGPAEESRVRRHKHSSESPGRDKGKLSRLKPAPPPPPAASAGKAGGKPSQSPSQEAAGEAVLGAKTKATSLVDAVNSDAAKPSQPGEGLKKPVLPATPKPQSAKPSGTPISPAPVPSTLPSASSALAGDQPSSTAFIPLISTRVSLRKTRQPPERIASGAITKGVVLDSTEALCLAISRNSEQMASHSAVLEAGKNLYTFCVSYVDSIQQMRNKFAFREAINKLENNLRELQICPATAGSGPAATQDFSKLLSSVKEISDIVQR

[7] = molecular target: T2, Tyrosine-protein kinase receptor TYRO3 (Homo sapiens, UniProt Q06418); experiment: Inhibition of human recombinant TYRO3 by fluorescence polarization assay
T2 sequence (Q06418 whole entry): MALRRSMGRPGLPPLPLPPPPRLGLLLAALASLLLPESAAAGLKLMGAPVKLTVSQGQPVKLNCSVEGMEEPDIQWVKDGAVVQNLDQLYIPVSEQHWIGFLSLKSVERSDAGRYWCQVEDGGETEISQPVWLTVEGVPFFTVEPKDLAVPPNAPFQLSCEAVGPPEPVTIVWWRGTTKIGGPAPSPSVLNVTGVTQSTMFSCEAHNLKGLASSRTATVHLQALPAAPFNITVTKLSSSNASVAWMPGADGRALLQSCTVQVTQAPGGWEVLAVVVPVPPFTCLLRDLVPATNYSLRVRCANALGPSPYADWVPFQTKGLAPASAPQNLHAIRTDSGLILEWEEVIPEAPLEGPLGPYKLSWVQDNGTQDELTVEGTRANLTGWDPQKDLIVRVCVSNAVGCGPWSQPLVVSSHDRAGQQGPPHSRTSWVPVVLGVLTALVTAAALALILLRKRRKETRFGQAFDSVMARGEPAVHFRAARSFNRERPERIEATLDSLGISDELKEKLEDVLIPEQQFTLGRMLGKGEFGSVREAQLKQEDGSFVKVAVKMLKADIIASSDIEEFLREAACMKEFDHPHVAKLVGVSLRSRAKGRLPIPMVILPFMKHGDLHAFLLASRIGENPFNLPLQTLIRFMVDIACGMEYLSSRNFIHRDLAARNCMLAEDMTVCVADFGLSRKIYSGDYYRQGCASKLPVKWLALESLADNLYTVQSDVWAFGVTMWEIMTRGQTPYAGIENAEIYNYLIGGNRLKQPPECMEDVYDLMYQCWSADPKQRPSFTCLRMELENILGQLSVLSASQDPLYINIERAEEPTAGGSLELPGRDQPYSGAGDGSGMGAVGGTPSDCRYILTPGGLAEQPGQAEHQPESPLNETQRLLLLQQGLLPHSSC

[8] = test system: MDA-MB-231; experiment: Antimetastatic activity against human MDA-MB-231-luc-D3H2LN cells xenografted in NCr nu/nu mouse assessed as mouse survival at 125 mg/kg, bid administered daily for 21 days measured on day 22 by bioluminescence imaging analysis; type: functional
[9] = molecular target: T1, Tyrosine-protein kinase receptor UFO; experiment: Inhibition of AXL in human GIST cells; type: cell-based
[10] = molecular target: T1, Tyrosine-protein kinase receptor UFO; experiment: Inhibition of human full length AXL by scintillation counting method in presence of 33P-gammaATP
[11] = molecular target: T1, Tyrosine-protein kinase receptor UFO; experiment: Inhibition of human full length AXL after 4 hrs followed by stimulation with human recombinant Gas6 for 15 minutes by cell based assay

IC50 [3]: 10 nM | IC50 [2]: < 500 nM | IC50 [4]: 48 nM
SMILES: Cc1c(C(=O)Nc2ccc(Oc3ccnc4[nH]cc(-c5ccccc5)c34)c(F)c2)c(=O)n(-c2ccc(F)cc2)n1C

IC50 [5]: 1 nM
SMILES: COCCNCc1ccc(-c2cc3nccc(Oc4ccc(NC(=S)NC(=O)Cc5ccc(F)cc5)cc4F)c3s2)nc1 [GLESATINIB]

IC50 [9]: < 1000 nM
SMILES: S=C(NCc1ccc2c(c1)OCO2)N1CCN(c2ncnc3c2oc2ccccc23)CC1 [AMUVATINIB]

Second part, the compound before the results:

SMILES: Cc1c[nH]c2nc(Nc3ccc(N4CCN(C)CC4)c(F)c3)nc(-c3cccc(CC#N)c3)c12
IC50 [1]: 58 nM | IC50 [2]: < 1000 nM

SMILES: Nc1nc(Nc2ccc3c(c2)CC[C@@H](N2CCCC2)CC3)nn1-c1cc2c(nn1)-c1ccccc1CCC2 [BEMCENTINIB]
IC50 [6]: > 700 nM | IC50 [7]: > 700 nM | survival at 125 mg/kg [8]: > 35%

SMILES: Cc1ccc(C(=O)Nc2ccc(Oc3cc4cnn(C)c4cc3-c3cn[nH]c3)c(F)c2)c(=O)n1-c1ccc(F)cc1 [MERESTINIB]
IC50 [10]: 11 nM | IC50 [11]: 2 nM
